Data on 38 compounds can be found in US20250361210A1, “3,4-DIHYDROQUINOLIN-2(1H)-ONE COMPOUND” (Kissei Pharmaceutical Co., Ltd., priority 2022, published 2025).

The assay deals with T1, human TSHR (Homo sapiens, UniProt P16473).
T1 construct: expressed in transfected cells
T1 sequence (P16473 21-764): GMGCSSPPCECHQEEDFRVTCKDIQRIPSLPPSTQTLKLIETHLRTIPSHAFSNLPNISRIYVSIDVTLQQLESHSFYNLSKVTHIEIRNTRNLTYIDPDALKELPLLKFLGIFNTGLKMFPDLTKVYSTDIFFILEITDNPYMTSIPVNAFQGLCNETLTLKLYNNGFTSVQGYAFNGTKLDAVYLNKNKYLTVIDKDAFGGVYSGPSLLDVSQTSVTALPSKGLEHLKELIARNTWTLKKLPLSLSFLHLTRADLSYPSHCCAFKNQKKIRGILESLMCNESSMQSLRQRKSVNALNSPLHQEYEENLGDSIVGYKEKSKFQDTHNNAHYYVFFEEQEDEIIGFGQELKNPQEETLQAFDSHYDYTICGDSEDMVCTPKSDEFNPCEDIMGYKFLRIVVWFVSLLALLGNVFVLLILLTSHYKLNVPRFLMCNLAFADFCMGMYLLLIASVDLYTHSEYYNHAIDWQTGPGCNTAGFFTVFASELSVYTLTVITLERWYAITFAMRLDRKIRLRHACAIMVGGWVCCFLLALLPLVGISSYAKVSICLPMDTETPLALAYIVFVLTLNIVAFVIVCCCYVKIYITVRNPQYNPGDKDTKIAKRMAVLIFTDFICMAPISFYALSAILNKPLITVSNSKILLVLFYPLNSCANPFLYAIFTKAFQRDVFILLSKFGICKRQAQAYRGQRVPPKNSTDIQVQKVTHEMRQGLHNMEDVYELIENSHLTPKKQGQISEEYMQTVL
As to the kind of experiment: Antagonist activity using TSH-induced cAMP production in human TSHR-stably expressing CHO cells. The following applies: human TSH 50 ng/mL. In kind it is cell-based. On the procedure: Measurement of Antagonist Activity Using TSH-Induced cAMP Production in Human TSHR-Stably Expressing CHO Cells as an Indicator
The human TSHR gene sequence (reference number NM_000369.2) was inserted into the multicloning site of pcDNA3.1(+). The constructed plasmid vector was introduced into CHO cells using the lipofection method to establish human TSHR-stably expressing CHO cells. The obtained cells were seeded at 5×10^4 cells/well in a 96-well poly-D-lysine-coated plate, and cultured in an F12 culture medium containing 10% FBS, 400 μg/mL of G418, 50 U/mL of penicillin and 50 μg/mL of streptomycin under conditions of 37° C. and 5% CO2 for 1 day. After the culture medium was removed, the cells were washed twice with 100 μL of an assay buffer solution (Hanks' Balanced Salt Solution containing 20 mM HEPES and 1 mM IBMX) per well. 30 μL of a test compound-containing assay buffer solution was added to the well and incubated at room temperature for 15 minutes. Then, 30 μL of an assay buffer solution containing human TSH (final concentration 50 ng/mL, R&D Systems, Inc.) was added, and incubated at 37° C. for 1 hour. The supernatant was removed, a Lysis and Detection Buffer 2 (Cisbio) was added, and the mixture was incubated at room temperature for 1 hour to prepare a cell lysate. According to the instruction manual of a cAMP Gs HiRange kit (Cisbio), the cell lysate, d2-labeled cAMP and anti-cAMP Europium Cryptate labeled antibodies (Cisbio) were reacted in a 384-well white microplate. Then, a fluorescence intensity ratio (measurement wavelength 665 nm/620 nm) was measured using a multi-plate reader (PHERAstar FSX, BMG LABTECH, Japan). The fluorescence intensity ratio of each sample was converted to a cAMP content using a standard curve. The cAMP content was converted as a percentage of the control value to calculate the cAMP production rate. The CAMP production rate was plotted against the test compound concentration using Prism (Graph Pad Software Inc.) to calculate the IC50 value. The IC50 of each test compound is shown in the above tables. In the tables, IC50<0.5 μM: A, 0.5 μM≤IC50<3.0 μM: B, 3.0 μM≤IC50<30 μM: C are shown.
In the case of `CN1C(=O)C(CC(N)=O)Cc2cccc(Oc3ccccc3)c21` (centres unmarked) [Example 1, 2-(1-methyl-2-oxo-8-phenoxy-1,2,3,4-tetrahydroquinolin-3-yl)acetamide], the IC50 lay within 3000 to 30000 nM.

Turning to `CN1C(=O)C(NC(N)=O)Cc2cccc(Oc3ccccc3)c21` (centres unmarked) [Example 2, (1-methyl-2-oxo-8-phenoxy-1,2,3,4-tetrahydroquinolin-3-yl)urea], the IC50 lay in the range of 500 to 3000 nM.

Compound `CN1C(=O)C(NC(N)=O)Cc2cccc(Oc3ccccc3F)c21` (centres unmarked) [Example 3, (8-(2-fluorophenoxy)-1-methyl-2-oxo-1,2,3,4-tetrahydroquinolin-3-yl)urea] had an IC50 of 500 to 3000 nM.

With `CN1C(=O)C(NC(N)=O)Cc2cccc(Oc3cccc(F)c3)c21` (centres unmarked) [Example 4, (8-(3-fluorophenoxy)-1-methyl-2-oxo-1,2,3,4-tetrahydroquinolin-3-yl)urea], the IC50 was in the range of 3000 to 30000 nM.

In turn, `CN1C(=O)C(NC(N)=O)Cc2cccc(Oc3cccc(C(F)(F)F)c3)c21` (centres unmarked) [Example 5, (1-methyl-2-oxo-8-(3-(trifluoromethyl)phenoxy)-1,2,3,4-tetrahydroquinolin-3-yl)urea] yielded an IC50 of 500 to 3000 nM.

The compound `CN1C(=O)C(NC(N)=O)Cc2cccc(Oc3cccc(Cl)c3)c21` (centres unmarked) [Example 6, (8-(3-chlorophenoxy)-1-methyl-2-oxo-1,2,3,4-tetrahydroquinolin-3-yl)urea] yielded an IC50 of 500 to 3000 nM.

The compound `CN1C(=O)C(NC(N)=O)Cc2ccc(F)c(Oc3ccccc3)c21` (centres unmarked) [Example 7] yielded an IC50 of 500 to 3000 nM.

Turning to `CN1C(=O)C(NC(N)=O)Cc2ccc(Cl)c(Oc3ccccc3)c21` (centres unmarked) [Example 8], the IC50 is 500 to 3000 nM.

On to `CN1C(=O)C(NC(N)=O)Cc2cccc(Oc3ncccc3C(F)(F)F)c21` (centres unmarked) [Example 9, (1-methyl-2-oxo-8-((3-(trifluoromethyl)pyridine-2-yl)oxy)-1,2,3,4-tetrahydroquinolin-3-yl)urea], for which the IC50 was in the range of 3000 to 30000 nM.

Compound `CN1C(=O)[C@H](NC(N)=O)Cc2cccc(Oc3ccccc3C(F)(F)F)c21` [Example 10, ((3R)-1-methyl-2-oxo-8-(2-(trifluoromethyl)phenoxy)-1,2,3,4-tetrahydroquinolin-3-yl)urea] returned an IC50 of under 500 nM.

Regarding `COc1ccccc1Oc1cccc2c1N(C)C(=O)[C@H](NC(N)=O)C2` [Example 11, ((3R)-8-(2-methoxyphenoxy)-1-methyl-2-oxo-1,2,3,4-tetrahydroquinolin-3-yl)urea], the IC50 lay in the range of 3000 to 30000 nM.

As for `CN1C(=O)[C@H](NC(N)=O)Cc2cccc(Oc3cccc(C#N)c3)c21` [Example 12, ((3R)-8-(3-cyanophenoxy)-1-methyl-2-oxo-1,2,3,4-tetrahydroquinolin-3-yl)urea], the IC50 fell in the range of 3000 to 30000 nM.

Compound `COc1cccc(Oc2cccc3c2N(C)C(=O)[C@H](NC(N)=O)C3)c1` [Example 13] came in with an IC50 of 500 to 3000 nM.

Turning to `CCc1ccccc1Oc1cccc2c1N(C)C(=O)[C@H](NC(N)=O)C2` [Example 14], the IC50 is 500 to 3000 nM.

As for `CCc1cccc(Oc2cccc3c2N(C)C(=O)[C@H](NC(N)=O)C3)c1` [Example 15], the IC50 lay within 500 to 3000 nM.

In turn, `CN1C(=O)[C@H](NC(N)=O)Cc2cccc(Oc3cc(F)ccc3Cl)c21` [Example 16, ((3R)-8-(2-chloro-5-fluorophenoxy)-1-methyl-2-oxo-1,2,3,4-tetrahydroquinolin-3-yl)urea] showed an IC50 of under 500 nM.

`CC(C)c1ccccc1Oc1cccc2c1N(C)C(=O)[C@H](NC(N)=O)C2` [Example 17, ((3R)-1-methyl-2-oxo-8-(2-(propan-2-yl)phenoxy)-1,2,3,4-tetrahydroquinolin-3-yl)urea] yielded an IC50 of 500 to 3000 nM.

`CN1C(=O)[C@H](NC(N)=O)Cc2cccc(Oc3ccccc3C(F)F)c21` [Example 18, ((3R)-8-(2-(difluoromethyl)phenoxy)-1-methyl-2-oxo-1,2,3,4-tetrahydroquinolin-3-yl)urea]: the 50% inhibitory concentration (IC50) was under 500 nM.

`CN1C(=O)[C@H](NC(N)=O)Cc2ccc(F)c(Oc3ccccc3Cl)c21` [Example 19, ((3R)-8-(2-chlorophenoxy)-7-fluoro-1-methyl-2-oxo-1,2,3,4-tetrahydroquinolin-3-yl)urea]: the IC50 was under 500 nM.

As for `CN1C(=O)[C@H](NC(N)=O)Cc2cccc(Oc3ccc(F)cc3Cl)c21` [Example 20, ((3R)-8-(2-chloro-4-fluorophenoxy)-1-methyl-2-oxo-1,2,3,4-tetrahydroquinolin-3-yl)urea], the IC50 was under 500 nM.

Compound `CN1C(=O)[C@H](NC(N)=O)Cc2cccc(Oc3cc(F)ccc3C(F)(F)F)c21` [Example 21, ((3R)-8-(5-fluoro-2-(trifluoromethyl)phenoxy)-1-methyl-2-oxo-1,2,3,4-tetrahydroquinolin-3-yl)urea] had an IC50 of under 500 nM.

`CN1C(=O)[C@H](NC(N)=O)Cc2ccc(Cl)c(Oc3ccccc3Cl)c21` [Example 22, ((3R)-7-chloro-8-(2-chlorophenoxy)-1-methyl-2-oxo-1,2,3,4-tetrahydroquinolin-3-yl)urea] came in with an IC50 of under 500 nM.

`CN1C(=O)[C@H](NC(N)=O)Cc2ccc(Cl)c(Oc3ccccc3F)c21` [Example 23, ((3R)-7-chloro-8-(2-fluorophenoxy)-1-methyl-2-oxo-1,2,3,4-tetrahydroquinolin-3-yl)urea] had an IC50 of under 500 nM.

The compound `CN1C(=O)[C@H](NC(N)=O)Cc2cccc(Oc3cccc(OC(F)F)c3)c21` [Example 24, ((3R)-8-(3-(difluoromethoxy)phenoxy)-1-methyl-2-oxo-1,2,3,4-tetrahydroquinolin-3-yl)urea] displayed a half-maximal inhibitory concentration (IC50) of 500 to 3000 nM.

`COc1cccc(Oc2c(Cl)ccc3c2N(C)C(=O)[C@H](NC(N)=O)C3)c1` [Example 25] gave an IC50 of 500 to 3000 nM.

`CN1C(=O)[C@H](NC(N)=O)Cc2ccc(Cl)c(Oc3cccc(F)c3)c21` [Example 26, ((3R)-7-chloro-8-(3-fluorophenoxy)-1-methyl-2-oxo-1,2,3,4-tetrahydroquinolin-3-yl)urea] showed a half-maximal inhibitory concentration (IC50) of under 500 nM.

In turn, `CN1C(=O)[C@H](NC(N)=O)Cc2ccc(Cl)c(Oc3ccccc3C(F)F)c21` [Example 27, ((3R)-7-chloro-8-(2-(difluoromethyl)phenoxy)-1-methyl-2-oxo-1,2,3,4-tetrahydroquinolin-3-yl)urea] returned an IC50 of under 500 nM.

For `CN1C(=O)[C@H](NC(N)=O)Cc2cccc(Oc3cc(F)ccc3C(F)F)c21` [Example 28], the IC50 was under 500 nM.

The compound `CN1C(=O)[C@H](NC(N)=O)Cc2cccc(Oc3ccc(F)cc3C(F)F)c21` [Example 29] displayed an IC50 of under 500 nM.

Turning to `COc1ccc(Cl)c(Oc2cccc3c2N(C)C(=O)[C@H](NC(N)=O)C3)c1` [Example 30, ((3R)-8-(2-chloro-5-methoxyphenoxy)-1-methyl-2-oxo-1,2,3,4-tetrahydroquinolin-3-yl)urea], the IC50 was under 500 nM.

As to `Cc1ccc2c(c1Oc1ccccc1Cl)N(C)C(=O)[C@H](NC(N)=O)C2` [Example 31, ((3R)-8-(2-chlorophenoxy)-1,7-dimethyl-2-oxo-1,2,3,4-tetrahydroquinolin-3-yl)urea], the IC50 was under 500 nM.

For `CN1C(=O)[C@H](NC(N)=O)Cc2ccc(OCc3ccccc3)c(Oc3ccccc3Cl)c21` [Example 32], the IC50 fell in the range of 3000 to 30000 nM.

With `CN1C(=O)[C@H](NC(N)=O)Cc2ccc(O)c(Oc3ccccc3Cl)c21` [Example 33, ((3R)-8-(2-chlorophenoxy)-7-hydroxy-1-methyl-2-oxo-1,2,3,4-tetrahydroquinolin-3-yl)urea], the IC50 is 500 to 3000 nM.

Turning to `CCN1C(=O)[C@H](NC(N)=O)Cc2cccc(Oc3ccccc3Cl)c21` [Example 34, ((3R)-8-(2-chlorophenoxy)-1-ethyl-2-oxo-1,2,3,4-tetrahydroquinolin-3-yl)urea], the IC50 is under 500 nM.

Regarding `CN1C(=O)[C@H](NC(N)=O)Cc2cccc(Oc3cc(F)c(F)cc3Cl)c21` [Example 35, ((3R)-8-(2-chloro-4,5-difluorophenoxy)-1-methyl-2-oxo-1,2,3,4-tetrahydroquinolin-3-yl)urea], the IC50 is under 500 nM.

On to `CN1C(=O)[C@H](NC(N)=O)Cc2ccc(F)c(Oc3ccccc3C(F)(F)F)c21` [Example 36], for which the IC50 was in the range of 500 to 3000 nM.

For the compound `CN1C(=O)[C@H](NC(N)=O)Cc2ccc(Cl)c(Oc3cc(F)ccc3Cl)c21` [Example 37, ((3R)-7-chloro-8-(2-chloro-5-fluorophenoxy)-1-methyl-2-oxo-1,2,3,4-tetrahydroquinolin-3-yl)urea], the IC50 was under 500 nM.

`Cc1ccc2c(c1Oc1ccccc1C(F)F)N(C)C(=O)[C@H](NC(N)=O)C2` [Example 38, ((3R)-8-(2-(difluoromethyl)phenoxy)-1,7-dimethyl-2-oxo-1,2,3,4-tetrahydroquinolin-3-yl)urea] gave an IC50 of under 500 nM.
